Measured values reported in patent EP1085812B1, “POTATO CYST NEMATODE CONTROLLING FACTORS AND THEIR USE IN AGRICULTURE” (priority 1998, dated 1999).
Like-named read-outs stand apart in the source and are kept apart here.

Experiments:
[1] = tested on: G. rostochiensis pathotype Ro-1; test: Interaction of glycoalkaloid dilution series with PRL in hatching assay; format: in vivo; details: Fig. 9
Source text: To investigate these interactions further, the response of PCN hatch to a dilution series of single natural potato-produced HFs (the glycoalkaloids α-solanine and α-chaconine: Devine, K.J. et al. ((1996) supra) was studied in the presence and absence of a PRL preparation, the concentration of the latter being adjusted to that used in Figs. 4 and 5.
Logarithmic dilution series ([…]) of the glycoalkaloids α-chaconine and α-solanine (Sigma Chemical Co. Poole, UK) were each prepared either in water or PRL (1mg ml^-1). Hatching activity was determined in these dilution series, with PRL (1mg ml^-1) and water as controls.
At each glycoalkaloid concentration, the hatching activity of (glycoalkaloid only), (PRL only) and (glycolalkaloid + PRL) preparations was determined. The difference between the observed hatch (in the presence of (glycoalkaloid only), (PRL only) and (glycoalkaloid + PRL) and the expected hatch if the effects of the glycoalkaloid and PRL were additive, (i.e. (glycoalkaloid only)) + (PRL only) was determined at each concentration of glycoalkaloid. The results are depicted in Fig. 9.

[2] = tested on: PCN; details: in aqueous solutions or as a solid; cited from earlier work
[3] = cited from earlier work

Row | Compound | effect on hatching activity of PRL ([1]; high concentrations of glycoalkaloid, dilution series in PRL (1mg ml^-1)) | effect on hatching activity of PRL ([1]; lower concentrations of glycoalkaloid, over a range of four orders of magnitude) | concentration at which active [2] | optimum concentration [2] | stability ([3]; pH below 2 and above 7) | stability ([3]; temperatures above about 35°C)
1 | C[C@H]1CC[C@@H]2[C@@H](C)[C@H]3[C@H](C[C@H]4[C@@H]5CC=C6C[C@@H](O[C@@H]7O[C@H](CO)[C@H](O)[C@H](O[C@@H]8O[C@H](CO)[C@@H](O)[C@H](O)[C@H]8O)[C@H]7O[C@@H]7O[C@@H](C)[C@H](O)[C@@H](O)[C@H]7O)CC[C@]6(C)[C@H]5CC[C@]34C)N2C1 [α-solanine] | markedly inhibited | interacted synergistically |  |  |  | 
2 | trans-2-(2-,13-dihydroxy-9-methoxy-7,7,16-trimethyl-5,10,20-trioxo-19-oxahexacyclo [9.7.0.1^3,6.0^3,8.1^12,16]-eicosa-1(11),8-dien-15-yl) cyclopropropanecarboxylic acid [hatching agent] |  |  | 0.01 - 1000 mg/kg soil | 1 - 100 mg/kg soil | unstable | unstable
